Data published in BindingDB's records for doi:10.1016/j.bmcl.2012.12.095 (Astrazeneca, 2013).

Assay: Antagonist activity at CCR1 receptor in human THP1 cells assessed as inhibition of MIP-1alpha-induced chemotaxis after 2 hrs by fluorescence assay

CC(=O)Nc1ccc(O)cc1OC[C@@H](N)CN1CCC2(CC1)Cc1ccccc1O2
IC50: 68 nM
